The values that follow come from patent US20250320397A1, “NON-PFAS REFRIGERANTS AND METHODS OF COOLING ELECTRONICS” (Honeywell International Inc., priority 2024, published 2025).

Data set [1] can be described thus: Dielectric constant measured with Agilent 85070 Dielectric Probe (Example 2). Type of data set: physicochemical. As to conditions: ambient pressure, room temperature (approximately 23° C.); for Dielectric Constant (Dk): Table 3; for Dk: Table 5, probe calibrated 1 GHz to 20 GHz. The method, then:
“Dielectric Constant” means the dielectric constant as measured in accordance with ASTM D150-11 statically and at room temperature.
(§1) The boiling point (“BP”) of HFO-1336pyy and HFO-1336eyc were determined and the results are reported below in Table 5. The dielectric constant (“Dk”) of HFO-1336pyy and HFO-1336eyc(E) were measured, whereas the Dk of HFO*1336eyc (Z) was calculated using the Kirkwood model as described in Harvey, A. H. and Lemmon, E. W., International Journal of Thermophysics, Vol. 26, No. 1, 2005. The measured dielectric property were determined using the Agilent 85070 Dielectric Probe. All measurements were made at ambient pressure and room temperature (approximately 23° C.). Prior to making measurements, the system was calibrated from 1 GHz to 20 GHz with an open circuit, a short circuit, and DI water (@22.4° C.) standard. The accuracy of the probe is given as: Dielectric constant, er′=er′+/−0.05|er*| with er″=er″+/−0.05|er*| and (loss=er″/er′).

The nature of data set [2]: Boiling point determination (Example 2). Format: physicochemical. As to conditions: for Bp: Table 3, approximate physical properties; for BP: Table 5. The protocol: as §1
On data set [3], the source says:
This is experimentally determined where a liquid spill is simulated by pouring the liquid of interest into a watch glass. The flammability of, primarily, a single component or a blend is characterized throughout the evaporation of the puddle to dryness. […] The watch glass test is a conservative test because no external heat is applied to the watch glass, which is chilled by the evaporating solvent. The cold watch glass acts as a condenser for the vapors of higher boiling point blend components. In the case where a flammable component is high boiling, its concentration increases throughout the evaporation time, rendering the mixture more flammable than it would be under temperature-controlled blend segregation experiments.
This was experimentally determined where a liquid spill was simulated by pouring HFO-1336pyy(Z) into a watch glass. The flammability was characterized throughout the evaporation of the puddle to dryness.

Regarding `F/C(=C(\F)C(F)F)C(F)F` [Compound 1, (Z)-1,1,2,3,4,4-hexafluorobut-2-ene], in data set [1], the “Dielectric Constant (Dk)” value was determined as 6.72 and the Dk is listed as 6.72. Further, in data set [2], the Bp was 58.2 °C and the BP was found to be 58.2 °C.
Turning to `F/C(=C(/F)C(F)F)C(F)F` [Compound 2, (E)-1,1,2,3,4,4-hexafluorobut-2-ene], in data set [1], the “Dielectric Constant (Dk)” value is 4.34 and the Dk is 4.34. In data set [2], this compound registered a Bp of 51.7 °C and a BP of 51.7 °C. For the same compound, the “flammability (flame on open flame passed across liquid surface)” value (from here on “flammability”) in data set [3] is recorded as “no flame was observed”.
In data set [2], `F/C=C(\F)C(F)(F)C(F)F` [Compound 3, (Z)-1,2,3,3,4,4-hexafluorobut-1-ene] registered a Bp of 40.4 °C and a BP of 40.4 °C. Also, the “flammability” value in data set [3] is listed as “no flame is observed”.
Consider `F/C=C(/F)C(F)(F)C(F)F` [Compound 4, (E)-1,2,3,3,4,4-hexafluorobut-1-ene], for which, in data set [1], the “Dielectric Constant (Dk)” value came out at 5.09 and the Dk is given as 5.09. In data set [2], this compound yielded a Bp of 45.3 °C and a BP of 45.3 °C. Besides, in data set [3], the “flammability” value was “no flame was observed”.
